Test results: patent publication US10670605B2, “Cysteine reactive probes and uses thereof” (The Scripps Research Institute, priority 2015, dated 2020)
Values joined by “and” are separate entries in the source; they are usually repeats but may differ in a detail not shown here. Equal values may be shown once.

How the values were obtained:
Experiment in all cases: Competitive isoTOP-ABPP, cell lysates
Type in all cases: binding
[1] = target: T1, PCK2 C306 (Q16822) (Homo sapiens, UniProt Q16822)
T1 sequence (Q16822 33-640): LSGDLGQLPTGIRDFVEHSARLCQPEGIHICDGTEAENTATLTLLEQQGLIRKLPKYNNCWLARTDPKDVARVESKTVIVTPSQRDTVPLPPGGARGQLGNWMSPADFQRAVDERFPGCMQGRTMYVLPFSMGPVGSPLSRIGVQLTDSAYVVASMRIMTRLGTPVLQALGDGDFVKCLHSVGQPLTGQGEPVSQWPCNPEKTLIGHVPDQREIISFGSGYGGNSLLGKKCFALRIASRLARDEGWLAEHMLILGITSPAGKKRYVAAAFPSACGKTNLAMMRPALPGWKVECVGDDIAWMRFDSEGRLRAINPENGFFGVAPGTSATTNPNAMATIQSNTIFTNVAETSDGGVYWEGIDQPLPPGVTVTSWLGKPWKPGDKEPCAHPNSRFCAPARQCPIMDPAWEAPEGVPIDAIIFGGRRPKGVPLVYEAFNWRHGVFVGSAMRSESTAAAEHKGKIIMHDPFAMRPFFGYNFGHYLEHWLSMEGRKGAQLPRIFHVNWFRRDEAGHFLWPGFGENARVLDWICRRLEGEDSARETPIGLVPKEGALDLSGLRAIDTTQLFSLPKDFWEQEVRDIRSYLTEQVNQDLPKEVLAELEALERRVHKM

[2] = target: T2, PDIA6 C55 (Q15084) (Homo sapiens, UniProt Q15084); details: for isoTOP-ABPP reactivity ratio, Q15084_C55: 500 μm
T2 sequence (Q15084 20-440): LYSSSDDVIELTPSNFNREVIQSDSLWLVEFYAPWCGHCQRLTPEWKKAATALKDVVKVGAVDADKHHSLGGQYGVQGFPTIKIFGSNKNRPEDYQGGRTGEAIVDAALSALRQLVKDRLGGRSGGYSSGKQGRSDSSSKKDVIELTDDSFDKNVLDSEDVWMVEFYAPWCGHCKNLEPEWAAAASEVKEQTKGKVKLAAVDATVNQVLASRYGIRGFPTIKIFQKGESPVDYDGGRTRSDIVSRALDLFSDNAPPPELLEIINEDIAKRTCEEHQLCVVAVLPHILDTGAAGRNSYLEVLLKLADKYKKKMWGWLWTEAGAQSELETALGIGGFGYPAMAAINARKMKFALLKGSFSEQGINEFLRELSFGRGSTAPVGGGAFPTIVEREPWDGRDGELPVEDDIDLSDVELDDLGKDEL

[3] = target: T3, ACAT1 C196 (P24752) (Homo sapiens, UniProt P24752)
T3 sequence (P24752 34-427): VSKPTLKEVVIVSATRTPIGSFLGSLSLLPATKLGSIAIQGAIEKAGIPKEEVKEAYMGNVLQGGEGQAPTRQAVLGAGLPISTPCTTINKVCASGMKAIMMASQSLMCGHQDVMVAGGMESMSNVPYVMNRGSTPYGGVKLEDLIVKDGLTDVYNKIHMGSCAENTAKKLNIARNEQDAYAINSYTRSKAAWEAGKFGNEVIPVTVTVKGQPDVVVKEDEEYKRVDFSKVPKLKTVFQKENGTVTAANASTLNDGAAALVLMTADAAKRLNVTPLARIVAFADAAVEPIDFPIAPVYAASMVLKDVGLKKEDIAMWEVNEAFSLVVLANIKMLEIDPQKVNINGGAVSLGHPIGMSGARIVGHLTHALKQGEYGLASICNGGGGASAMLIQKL

Compound | isoTOP-ABPP ratio (reactivity profile), Q16822_C306 ([1]; 500 μm in-vitro ramos_231) | isoTOP-ABPP ratio (reactivity profile), Q15084_C55 ([2]; 500 μm in-vitro ramos) | isoTOP-ABPP ratio (reactivity profile), Q15084_C55 ([2]; 500 μm in-vitro ramos_231) | isoTOP-ABPP ratio (reactivity profile), P24752_C196 ([3]; 500 μm in-vitro ramos) | isoTOP-ABPP reactivity ratio, P24752_C196 ([3]; 500 μm, in-vitro_ramos) | isoTOP-ABPP reactivity ratio, Q15084_C55 ([2]; in-vitro_ramos_231) | isoTOP-ABPP reactivity ratio, P24752_C196 ([3]; 500 μm, in-vitro_ramos_231) | other results
N#C/C(=C\c1cc(C(F)(F)F)cc(C(F)(F)F)c1)C(N)=O [compound 23] | 3.0 | 1.0 | 0.8 | 1.8 |  |  |  | 
CC(Br)C(=O)Nc1cc(C(F)(F)F)cc(C(F)(F)F)c1 (centres unmarked) [compound 24] |  | 1.3 |  | 1.1 |  |  |  | 
O=C(/C=C/c1ccccc1)Nc1cc(C(F)(F)F)cc(C(F)(F)F)c1 [compound 26] |  | 0.9 |  | 1.0 |  |  |  | 
C=CC(=O)N(Cc1cccnc1)c1cc(C(F)(F)F)cc(C(F)(F)F)c1 [compound 31] |  |  |  |  | 0.9 | 1.2 | 1.2 | isoTOP-ABPP reactivity ratio, Q16822_C306 ([1]; 500 μm, in-vitro_ramos): 1.2; isoTOP-ABPP reactivity ratio, Q16822_C306 ([1]; 500 μm, in-vitro_ramos_231): 1.9; isoTOP-ABPP reactivity ratio, Q15084_C55 ([2]; in-vitro_ramos): 1.1
O=C(CCl)N(Cc1ccc(F)cc1)C12CC3CC(CC(C3)C1)C2 [compound 34] |  |  |  |  | 1.0 | 0.9 | 0.8 | 
C=CC(=O)N1CCC(c2noc3ccc(F)cc23)CC1 [compound 37] |  |  |  |  | 1.0 |  |  | isoTOP-ABPP reactivity ratio, Q16822_C306 ([1]; 500 μm, in-vitro_ramos): 1.0; isoTOP-ABPP reactivity ratio, Q15084_C55 ([2]; in-vitro_ramos): 1.0
C=CC(=O)Nc1cc(C)c(Br)cc1C [compound 40] |  |  |  |  |  | 0.8 | 0.8 | 
CC1CCc2ccccc2N1C(=O)CCl (centres unmarked) [compound 45] |  |  |  |  |  |  |  | isoTOP-ABPP reactivity profile ratio, Q16822_C306 ([1]; 500 μm, in-vitro_ramos_231): 3.3; isoTOP-ABPP reactivity profile ratio, P24752_C196 ([3]; 500 μm, in-vitro_ramos_231): 20.0

Second part, led by results:

isoTOP-ABPP ratio (reactivity profile), Q16822_C306 ([1]; 500 μm in-vitro ramos_231) | isoTOP-ABPP ratio (reactivity profile), Q15084_C55 ([2]; 500 μm in-vitro ramos) | isoTOP-ABPP ratio (reactivity profile), Q15084_C55 ([2]; 500 μm in-vitro ramos_231) | isoTOP-ABPP ratio (reactivity profile), P24752_C196 ([3]; 500 μm in-vitro ramos) | isoTOP-ABPP reactivity ratio, P24752_C196 ([3]; 500 μm, in-vitro_ramos) | isoTOP-ABPP reactivity ratio, Q15084_C55 ([2]; in-vitro_ramos_231) | isoTOP-ABPP reactivity ratio, P24752_C196 ([3]; 500 μm, in-vitro_ramos_231) | Compound | other results
0.8 |  | 1.0 |  |  |  |  | CC(Cl)C(=O)Nc1cc(C(F)(F)F)cc(C(F)(F)F)c1 (centres unmarked) [compound 25] | isoTOP-ABPP ratio (reactivity profile), P24752_C196 ([3]; 500 μm in-vitro ramos_231): 0.9
1.4 and 1.5 | 1.2 | 0.8 and 1.1 | 1.1 |  |  |  | CC(C)CCOCCNC(=O)CCl [compound 27] | isoTOP-ABPP ratio (reactivity profile), Q16822_C306 ([1]; 500 μm in-vitro ramos): 1.1; isoTOP-ABPP ratio (reactivity profile), P24752_C196 ([3]; 500 μm in-vitro ramos_231): 0.9 and 1.0
1.1 | 1.5 | 1.1 | 1.1 |  |  |  | COc1ccccc1OCCNC(=O)CCl [compound 28] | isoTOP-ABPP ratio (reactivity profile), P24752_C196 ([3]; 500 μm in-vitro ramos_231): 1.0
1.1 | 1.3 | 1.0 | 1.0 |  |  |  | O=C(CCl)N1CCN(CC(=O)N2CCOCC2)CC1 [compound 29] | isoTOP-ABPP ratio (reactivity profile), Q16822_C306 ([1]; 500 μm in-vitro ramos): 0.5; isoTOP-ABPP ratio (reactivity profile), P24752_C196 ([3]; 500 μm in-vitro ramos_231): 1.3
 | 2.2 |  | 0.8 | 1.1 |  |  | CCN(CC)c1ccc(S(N)(=O)=O)cc1NC(=O)CCl [compound 30] | isoTOP-ABPP ratio (reactivity profile), Q16822_C306 ([1]; 500 μm in-vitro ramos): 1.2; isoTOP-ABPP reactivity ratio, Q16822_C306 ([1]; 500 μm, in-vitro_ramos): 1.1
 |  |  |  | 2.0 | 20.0 | 2.3 | CC(C)(C)c1cc(NC(=O)CCl)on1 [compound 32] | isoTOP-ABPP reactivity ratio, Q16822_C306 ([1]; 500 μm, in-vitro_ramos_231): 3.2; isoTOP-ABPP reactivity ratio, Q15084_C55 ([2]; in-vitro_ramos): 20.0
 |  |  |  | 1.4 | 0.9 | 0.9 | O=C(CCl)Nc1ccccc1C1CCCCCC1 [compound 35] | isoTOP-ABPP reactivity ratio, Q16822_C306 ([1]; 500 μm, in-vitro_ramos): 1.0; isoTOP-ABPP reactivity ratio, Q16822_C306 ([1]; 500 μm, in-vitro_ramos_231): 0.9
